Reference: US20190275012A9, “SUBSTITUTED THIAZOLO-PYRIDINE COMPOUNDS AS MALT1 INHIBITORS” (Lupin Limited, priority 2016, published 2019)

Test system: NF-kB transcriptional activity in HEK-293-NF-kB-Luc cell line overexpressing MALT1
Assay: NF-kB reporter assay (luciferase, MALT1 stably overexpressed)
Format: cell-based
Details: Homo sapiens, 24 h, HEK-293-NF-kB-Luc cells stably overexpressing MALT1, 24 h treatment, Bright Glo luminescence; read-out: NF-kB inhibition IC50
Procedure: The NF-⇐B reporter assay was performed to screen for MALT1 inhibition mediated reduction in the NF-⇐B transcriptional activity. For this purpose, MALT1 was stably overexpressed in HEK-293—NF-⇐B-Luc cell line. Cells were seeded in poly-D-lysine coated 96-well plates in a culture medium containing the selection markers (DMEM+10% FBS+50 |g/ml Hygromycin+500 |g/ml Geniticin) and allowed to adhere overnight. On the following day, cells were treated with various concentrations of test compounds for 24 h. After 24 h of treatment with test compounds, media was removed from each well and Bright Glo™ (Promega, USA) substrate was added and incubated for further 10 min at ambient temperature. Luminescence was measured for detection of NF-⇐B reporter activity. RLUs (Relative Luminescence Units) were directly proportional to the NF-⇐B activity. % inhibition of NF-⇐B activity was calculated relative to the samples containing media with 0.1% DMSO alone as per the following formula

COc1ncc(NC(=O)Nc2cnc3sc(C)nc3c2C2CC2)cc1C#N [Compound 62, 1-(5-Cyano-6-methoxypyridin-3-yl)-3-(7-cyclopropyl-2-methylthiazolo[5,4-b]pyridin-6-yl)urea]
IC50: 101 to 500 nM

Cc1nc2c(C3CC3)c(NC(=O)Nc3ccc(-c4nnco4)c(Cl)c3)cnc2s1 [Compound 63, 1-(3-Chloro-4-(1,3,4-oxadiazol-2-yl)phenyl)-3-(7-cyclopropyl-2-methylthiazolo[5,4-b]pyridin-6-yl)urea]
IC50: 101 to 500 nM

COCC1(c2c(NC(=O)Nc3ccc(-n4nccn4)c(Cl)c3)cnc3sc(C)nc23)CC1 [Compound 64, 1-(3-Chloro-4-(2H-1,2,3-triazol-2-yl)phenyl)-3-(7-(1-(methoxymethyl)cyclopropyl)-2-methylthiazolo[5,4-b]pyridin-6-yl)urea]
IC50: 101 to 500 nM

Cc1nc2c(N3CCCOCC3)c(NC(=O)Nc3cnc(-n4nccn4)c(Cl)c3)cnc2s1 [Compound 67, 1-(5-Chloro-6-(2H-1,2,3-triazol-2-yl)pyridin-3-yl)-3-(2-methyl-7-(1,4-oxazepan-4-yl)thiazolo[5,4-b]pyridin-6-yl)urea]
IC50: 101 to 500 nM

COCCN(c1c(NC(=O)Nc2ccc(-n3nccn3)c(Cl)c2)cnc2sc(C)nc12)C1CC1 [Compound 68, 1-(3-Chloro-4-(2H-1,2,3-triazol-2-yl)phenyl)-3-(7-(cyclopropyl(2-methoxyethyl)amino)-2-methylthiazolo[5,4-b]pyridin-6-yl)urea]
IC50: 101 to 500 nM

COc1nc(-n2nccn2)c(Cl)cc1NC(=O)Nc1cnc2sc(C)nc2c1C(OC)C(C)C (centres unmarked) [Compound 81a, 1-(5-Chloro-2-methoxy-6-(2H-1,2,3-triazol-2-yl)pyridin-3-yl)-3-(7-(1-methoxy-2-methylpropyl)-2-methylthiazolo[5,4-b]pyridin-6-yl)urea]
IC50: 1 to 100 nM

COC(c1ccccc1)c1c(NC(=O)Nc2ccc(-n3nccn3)c(Cl)c2)cnc2sc(C)nc12 (centres unmarked) [Compound 82b, 1-(3-Chloro-4-(2H-1,2,3-triazol-2-yl)phenyl)-3-(7-(methoxy(phenyl)methyl)-2-methylthiazolo[5,4-b]pyridin-6-yl)urea]
IC50: 101 to 500 nM

COc1nc(-n2nccn2)c(C(F)(F)F)cc1NC(=O)Nc1cnc2sc(C)nc2c1C(C)OC (centres unmarked) [Compound 88a, 1-(2-Methoxy-6-(2H-1,2,3-triazol-2-yl)-5-(trifluoromethyl)pyridin-3-yl)-3-(7-(1-methoxyethyl)-2-methylthiazolo[5,4-b]pyridin-6-yl)urea]
IC50: 1 to 100 nM

Cc1nc2c(N(C)C3CC3)c(NC(=O)Nc3cnc(-n4nccn4)c(C(F)(F)F)c3)cnc2s1 [Compound 100, 1-(6-(2H-1,2,3-Triazol-2-yl)-5-(trifluoromethyl)pyridin-3-yl)-3-(7-(cyclopropyl(methyl)amino)-2-methylthiazolo[5,4-b]pyridin-6-yl)urea]
IC50: 1 to 100 nM

Cc1nc2c(C3(CO)CC3)c(NC(=O)Nc3cnc(-n4nccn4)c(Cl)c3)cnc2s1 [Compound 105, 1-(5-Chloro-6-(2H-1,2,3-triazol-2-yl)pyridin-3-yl)-3-(7-(1-(hydroxymethyl)cyclopropyl)-2-methylthiazolo[5,4-b]pyridin-6-yl)urea]
IC50: 1 to 100 nM

COc1ncc(NC(=O)Nc2cnc3sc(C)nc3c2C2(C)CC2)cc1Cl [Compound 117, 1-(5-Chloro-6-methoxypyridin-3-yl)-3-(2-methyl-7-(1-methylcyclopropyl)thiazolo[5,4-b]pyridin-6-yl)urea]
IC50: 1 to 100 nM

Cc1ncn(-c2ccc(NC(=O)Nc3cnc4sc(C)nc4c3C3CC3)cc2Cl)n1 [Compound 173, 1-(3-Chloro-4-(3-methyl-1H-1,2,4-triazol-1-yl)phenyl)-3-(7-cyclopropyl-2-methylthiazolo[5,4-b]pyridin-6-yl)urea]
IC50: 501 to 1500 nM

Cc1nc2c(C3CC3)c(NC(=O)Nc3ccc(-n4ncnc4C)c(Cl)c3)cnc2s1 [Compound 174, 1-(3-Chloro-4-(5-methyl-1H-1,2,4-triazol-1-yl)phenyl)-3-(7-cyclopropyl-2-methylthiazolo[5,4-b]pyridin-6-yl)urea]
IC50: 501 to 1500 nM

COc1ncc(NC(=O)Nc2cnc3sc(C)nc3c2C2CC2)cc1Br [Compound 175, 1-(5-Bromo-6-methoxypyridin-3-yl)-3-(7-cyclopropyl-2-methylthiazolo[5,4-b]pyridin-6-yl)urea]
IC50: 501 to 1500 nM

Cc1nc2c(C3(C)CC3)c(NC(=O)Nc3cnc(-n4nccn4)c(C(F)(F)F)c3)cnc2s1 [Compound 177, 1-(6-(2H-1,2,3-triazol-2-yl)-5-(trifluoromethyl)pyridin-3-yl)-3-(2-methyl-7-(1-methyleyelopropyl)thiazolo[5,4-b]pyridin-6-yl)urea]
IC50: 1 to 100 nM

COc1nc(-n2nccn2)c(Cl)cc1NC(=O)Nc1cnc2sc(C)nc2c1C1(C)CC1 [Compound 178, 1-(5-Chloro-2-methoxy-6-(2H-1,2,3-triazol-2-yl)pyridin-3-yl)-3-(2-methyl-7-(1-methyleyelopropyl)thiazolo[5,4-b]pyridin-6-yl)urea]
IC50: 1 to 100 nM

COc1nc(-n2nccn2)c(Cl)cc1NC(=O)Nc1cnc2sc(C)nc2c1C(C)C [Compound 184, 1-(5-Chloro-2-methoxy-6-(2H-1,2,3-triazol-2-yl)pyridin-3-yl)-3-(7-isopropyl-2-methylthiazolo[5,4-b]pyridin-6-yl)urea]
IC50: 1 to 100 nM

COc1nc(OC)c(NC(=O)Nc2cnc3sc(C)nc3c2C(C)C)cc1Cl [Compound 186, 1-(5-Chloro-2,6-dimethoxypyridin-3-yl)-3-(7-isopropyl-2-methylthiazolo[5,4-b]pyridin-6-yl)urea]
IC50: 501 to 1500 nM

Cc1nc2c(C(C)C)c(NC(=O)Nc3ccc(-n4nccn4)c(Cl)c3)cnc2s1 [Compound 188, 1-(3-Chloro-4-(2H-1,2,3-triazol-2-yl)phenyl)-3-(7-isopropyl-2-methylthiazolo[5,4-b]pyridin-6-yl)urea]
IC50: 101 to 500 nM

Cc1nc2c(C(C3CC3)N(C)C)c(NC(=O)Nc3cnc(-n4nccn4)c(Cl)c3)cnc2s1 (centres unmarked) [Compound 228b, 1-(5-Chloro-6-(2H-1,2,3-triazol-2-yl)pyridin-3-yl)-3-(7-(cyclopropyl(dimethylamino)methyl)-2-methylthiazolo[5,4-b]pyridin-6-yl)urea]
IC50: 1 to 100 nM

CCC(c1c(NC(=O)Nc2cnc(-n3nccn3)c(C(F)(F)F)c2)cnc2sc(C)nc12)N1CC(F)(F)C1 (centres unmarked) [Compound 229b, 1-(6-(2H-1,2,3-Triazol-2-yl)-5-(trifluoromethyl)pyridin-3-yl)-3-(7-(1-(3,3-difluoroazetidin-1-yl)propyl)-2-methylthiazolo[5,4-b]pyridin-6-yl)urea]
IC50: 1 to 100 nM

Cc1nc2c(C(N(C)C)C(F)(F)F)c(NC(=O)Nc3cnc(-n4nccn4)c(C(F)(F)F)c3)cnc2s1 (centres unmarked) [Compound 230b, 1-(6-(2H-1,2,3-triazol-2-yl)-5-(trifluoromethyl)pyridin-3-yl)-3-(7-(1-(dimethylamino)-2,2,2-trifluoroethyl)-2-methylthiazolo[5,4-b]pyridin-6-yl)urea]
IC50: 1 to 100 nM

Cc1nc2c(C(N(C)C)C(F)(F)F)c(NC(=O)Nc3cnc(-n4nccn4)c(Cl)c3)cnc2s1 (centres unmarked) [Compound 231b, 1-(5-Chloro-6-(2H-1,2,3-triazol-2-yl)pyridin-3-yl)-3-(7-(1-(dimethylamino)-2,2,2-trifluoroethyl)-2-methylthiazolo[5,4-b]pyridin-6-yl)urea]
IC50: 1 to 100 nM
